# Laboratory results reported in ChEMBL document CHEMBL1133305, “Phenyloxazoles and phenylthiazoles as benzamide bioisosteres: synthesis and dopamine receptor binding profiles” (Bioorg Med Chem Lett, 2000).
# Key:
# D(1A) dopamine receptor = D(1A) dopamine receptor (Bos taurus, UniProt Q95136); test: In vitro displacement of [3H]- SCH 23390 from the dopamine receptor D1 of bovine striatal membrane
# D(3) dopamine receptor = D(3) dopamine receptor (Homo sapiens, UniProt P35462); test: In vitro displacement of [3H]spiperone from the cloned human dopamine receptor D3 stably expressed in CHO cells; assay type: cell-based
# Sequence of D(3) dopamine receptor (P35462 whole entry): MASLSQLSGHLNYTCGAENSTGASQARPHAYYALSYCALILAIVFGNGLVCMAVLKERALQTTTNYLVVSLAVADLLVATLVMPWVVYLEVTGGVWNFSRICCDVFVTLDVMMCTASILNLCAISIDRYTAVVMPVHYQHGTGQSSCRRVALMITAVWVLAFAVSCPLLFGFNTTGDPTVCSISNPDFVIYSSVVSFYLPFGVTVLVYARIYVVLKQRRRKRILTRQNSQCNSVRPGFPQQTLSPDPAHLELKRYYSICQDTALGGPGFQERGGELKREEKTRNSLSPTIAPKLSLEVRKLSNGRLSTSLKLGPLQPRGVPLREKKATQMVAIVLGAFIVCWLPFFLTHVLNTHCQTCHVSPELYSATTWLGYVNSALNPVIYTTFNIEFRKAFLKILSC
# D(2) dopamine receptor [1] = target: T1, D(2) dopamine receptor (Homo sapiens, UniProt P14416); test: In vitro displacement of [3H]spiperone from the recombinant human dopamine receptor D2L stably expressed in CHO cells; assay type: cell-based
# T1 sequence (P14416 whole entry): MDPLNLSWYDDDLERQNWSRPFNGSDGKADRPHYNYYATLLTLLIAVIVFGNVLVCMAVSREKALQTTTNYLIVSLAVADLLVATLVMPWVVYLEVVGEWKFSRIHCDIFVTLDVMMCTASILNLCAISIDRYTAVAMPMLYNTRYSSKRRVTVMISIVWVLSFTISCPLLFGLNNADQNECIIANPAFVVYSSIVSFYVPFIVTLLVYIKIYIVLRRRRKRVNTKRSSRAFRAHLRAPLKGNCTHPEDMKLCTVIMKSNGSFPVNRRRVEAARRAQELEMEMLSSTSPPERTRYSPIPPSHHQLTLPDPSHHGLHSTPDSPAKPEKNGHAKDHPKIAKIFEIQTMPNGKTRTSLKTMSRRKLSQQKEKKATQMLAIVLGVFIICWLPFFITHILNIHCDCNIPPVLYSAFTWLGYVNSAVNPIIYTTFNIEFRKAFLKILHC
# D(2) dopamine receptor [2] = target: T1, D(2) dopamine receptor; test: In vitro displacement of [3H]spiperone from the recombinant human dopamine receptor D2 short form expressed in CHO cells; assay type: cell-based
# D(4) dopamine receptor = target: T2, D(4) dopamine receptor (Homo sapiens, UniProt P21917); test: In vitro displacement of [3H]spiperone from the recombinant human dopamine receptor D4 expressed in CHO cells; assay type: cell-based
# T2 sequence (P21917 whole entry): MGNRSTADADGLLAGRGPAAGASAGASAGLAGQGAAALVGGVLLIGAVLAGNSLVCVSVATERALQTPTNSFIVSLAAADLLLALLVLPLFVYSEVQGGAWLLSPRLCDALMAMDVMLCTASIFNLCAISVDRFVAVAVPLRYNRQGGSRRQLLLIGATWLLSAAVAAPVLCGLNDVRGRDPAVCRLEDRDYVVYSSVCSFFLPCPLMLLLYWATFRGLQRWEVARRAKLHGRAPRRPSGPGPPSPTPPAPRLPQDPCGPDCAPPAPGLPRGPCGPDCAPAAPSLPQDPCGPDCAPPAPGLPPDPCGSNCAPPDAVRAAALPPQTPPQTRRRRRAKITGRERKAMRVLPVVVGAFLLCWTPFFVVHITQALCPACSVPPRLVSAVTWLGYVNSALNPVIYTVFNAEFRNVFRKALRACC
# Sequence of D(1A) dopamine receptor (Q95136 whole entry): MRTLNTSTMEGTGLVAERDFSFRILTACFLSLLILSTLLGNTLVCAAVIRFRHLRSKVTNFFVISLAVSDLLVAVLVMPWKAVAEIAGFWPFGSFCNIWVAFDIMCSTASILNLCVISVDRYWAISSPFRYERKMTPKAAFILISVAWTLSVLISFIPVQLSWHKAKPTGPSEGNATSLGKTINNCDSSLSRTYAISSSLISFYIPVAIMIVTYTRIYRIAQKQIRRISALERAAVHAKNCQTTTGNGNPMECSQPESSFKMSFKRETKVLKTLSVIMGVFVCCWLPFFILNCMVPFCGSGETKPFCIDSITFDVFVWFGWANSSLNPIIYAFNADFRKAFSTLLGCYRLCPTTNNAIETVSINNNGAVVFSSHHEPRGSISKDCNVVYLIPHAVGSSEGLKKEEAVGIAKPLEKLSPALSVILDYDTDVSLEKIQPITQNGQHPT
Compound,Ki (D(1A) dopamine receptor) [µM],Ki (D(3) dopamine receptor) [µM],Ki (D(2) dopamine receptor [1]) [µM],Ki (D(2) dopamine receptor [2]) [µM],Ki (D(4) dopamine receptor) [µM],Ki (D(4) dopamine receptor; cho) [µM]
COc1ccc(Br)cc1-c1nc(CNCCC2CCN(Cc3ccccc3)C2)co1 (stereo not given),6.6,0.075,0.51,0.31,0.15,–
c1ccc(-c2nc(CN3CCN(c4ccccc4)CC3)co2)cc1,11.5,3.95,3,1.75,0.25,–
c1ccc(CN2CCC(NCc3coc(-c4ccccc4)n3)CC2)cc1,30,6.1,14,8.65,0.35,–
COc1c(-c2nc(CNC[C@@H]3CCN(Cc4ccccc4)C3)co2)cc(Br)c2ccccc12,100,5.85,45.5,17.5,15.5,–
COc1ccc(Br)cc1-c1nc(CNC[C@@H]2CCN(Cc3ccccc3)C2)co1 [listing 2 of 2 here],3.5,0.065,0.32,0.245,0.011,–
Oc1ccc(Br)cc1-c1nc(CN2CCN(c3ccccc3)CC2)co1,17.5,7.6,6.65,4.4,0.58,–
c1ccc(CN2CCN(Cc3csc(-c4ccccc4)n3)CC2)cc1,9.2,5.25,28,19.5,0.59,–
COc1ccc(Br)cc1-c1nc(CNC[C@@H]2CCN(Cc3ccccc3)C2)cs1 [listing 2 of 2 here],4.95,0.115,0.42,0.28,0.17,–
COc1ccc(Br)cc1-c1nc(CN2CCN(c3ccccc3)CC2)cs1,1.25,1.19,0.61,0.44,0.59,–
COc1ccc(Br)cc1-c1ncc(CNC[C@@H]2CCN(Cc3ccccc3)C2)[nH]1,8.9,1.3,6.25,2.75,1.11,–
COc1ccc(Br)cc1-c1nc(CN2CCN(Cc3ccccc3)CC2)co1,15.5,1.05,1.5,0.79,0.71,–
COc1ccc(Br)cc1-c1nc(CN[C@@H]2CCN(Cc3ccccc3)C2)co1 [listing 2 of 2 here],8,1.7,2.45,2,0.039,–
COc1ccc(Br)cc1-c1nc(CNCC[C@@H]2CCN(Cc3ccccc3)C2)co1,8.95,0.12,1.07,1.1,0.17,–

# Continued by falling Ki (D(1A) dopamine receptor), values first:
Ki (D(1A) dopamine receptor) [µM],Ki (D(3) dopamine receptor) [µM],Ki (D(2) dopamine receptor [1]) [µM],Ki (D(2) dopamine receptor [2]) [µM],Ki (D(4) dopamine receptor) [µM],Ki (D(4) dopamine receptor; cho) [µM],Compound
72,8.4,27.5,21.5,1.45,–,c1ccc(CN2CCN(Cc3coc(-c4ccccc4)n3)CC2)cc1
19.5,2.05,2.3,1.06,0.45,–,c1ccc(-c2nc(CN3CCN(c4ccccc4)CC3)cs2)cc1
16,1.85,8.25,6.6,0.51,–,COc1ccc(Br)cc1-c1nc(CN[C@@H]2CCN(Cc3ccccc3)C2)co1 [listing 1 of 2 here]
13.5,0.88,7.95,6.4,–,0.39,c1ccc(CN2CC[C@@H](CNCc3csc(-c4ccccc4)n3)C2)cc1 (stereo in doubt)
12.5,0.58,0.94,0.63,0.39,–,COc1ccc(Br)cc1-c1nc(CNC2CCN(Cc3ccccc3)CC2)co1
10.5,0.64,0.21,0.085,0.37,–,COc1ccc(Br)cc1-c1nc(CN2CCN(Cc3ccccc3)CC2)cs1
8.85,0.66,7.9,5.05,0.39,–,c1ccc(CN2CC[C@@H](CNCc3csc(-c4ccccc4)n3)C2)cc1 (stereo in doubt; 4q)
6.8,2.3,23,13.5,0.053,–,c1ccc(CN2CCC(NCc3csc(-c4ccccc4)n3)CC2)cc1
6.75,0.083,0.51,0.21,0.02,–,COc1ccc(Br)cc1-c1nc(CNC[C@@H]2CCN(Cc3ccccc3)C2)co1 [listing 1 of 2 here]
5.45,1.2,3.8,3.25,0.65,–,COc1ccc(Br)cc1-c1nc(CN(C)C[C@@H]2CCN(Cc3ccccc3)C2)co1
4.85,0.66,0.69,0.33,0.37,–,COc1ccc(Br)cc1-c1nc(CN2CCN(c3ccccc3)CC2)co1
4.5,0.205,0.195,0.105,0.4,–,COc1ccc(Br)cc1-c1nc(CNC2CCN(Cc3ccccc3)CC2)cs1
4,0.22,0.185,0.092,0.15,–,COc1ccc(Br)cc1-c1nc(CNC[C@@H]2CCN(Cc3ccccc3)C2)cs1 [listing 1 of 2 here]
